From US7998995B2 (Exelixis Patent Company LLC, priority 2006, dated 2011)

How the values were obtained:
FXR = target: T1, FXR (Homo sapiens, UniProt Q96RI1); experiment: Measured EC50 or IC50 for FXR (assay not given); conditions: IC50 or EC50 class; assay not specified
T1 sequence (Q96RI1 1-472 isoform Q96RI1-2): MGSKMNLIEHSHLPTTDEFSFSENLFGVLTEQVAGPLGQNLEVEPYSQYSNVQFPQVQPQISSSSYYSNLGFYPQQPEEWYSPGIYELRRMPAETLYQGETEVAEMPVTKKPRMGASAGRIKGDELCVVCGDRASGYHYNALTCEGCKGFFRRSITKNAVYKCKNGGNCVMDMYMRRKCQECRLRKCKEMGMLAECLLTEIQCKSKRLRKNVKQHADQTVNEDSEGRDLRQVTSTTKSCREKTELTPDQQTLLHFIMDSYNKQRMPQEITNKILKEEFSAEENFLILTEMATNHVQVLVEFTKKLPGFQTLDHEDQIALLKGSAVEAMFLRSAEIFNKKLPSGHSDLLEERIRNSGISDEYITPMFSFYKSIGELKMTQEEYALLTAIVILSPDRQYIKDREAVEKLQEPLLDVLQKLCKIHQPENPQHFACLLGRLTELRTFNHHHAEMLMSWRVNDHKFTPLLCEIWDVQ
Method: (§1) Measured EC50 or IC50 for LXR, and FXR for Compounds of the Invention
(§2) LXR and FXR activities for various compounds of the invention are presented in the following table; those compounds with EC50 or IC50 values <10 μM for at least one of LXRα, LXRβ or FXR are considered to be active. In the following Table, IC50 or EC50 data is represented as follows: A<1 μM, B=1-10 μm, and C>10 μM.

LXR = test system: T2, LXR; experiment: Measured EC50 or IC50 for LXR (LXRα and/or LXRβ; assay and subtype not given); conditions: IC50 or EC50 class, subtype not specified
T2 construct: fused on or other part: GST fused to the LBD in the FRET assay
Method: as §1, §2

| SMILES | EC50 (FXR) [µM] | EC50 (LXR) [µM] |
| --- | --- | --- |
| CC(C)(O)c1cc(-c2ccc(-c3cccc(S(C)(=O)=O)c3)s2)n(-c2c(F)cccc2F)n1 [Example 948, 2-[1-(2,6-difluorophenyl)-5-{5-[3-(methylsulfonyl)phenyl]-2-thienyl}-1H-pyrazol-3-yl]propan-2-ol] | 1 to 10 | < 1 |
| CC(C)(O)c1cc(-c2ccc(-c3cccc(S(C)(=O)=O)c3)s2)n(-c2c(Cl)cccc2Cl)n1 [Example 949, 2-[1-(2,6-dichlorophenyl)-5-{5-[3-(methylsulfonyl)phenyl]-2-thienyl}-1H-pyrazol-3-yl]propan-2-ol] | 1 to 10 | < 1 |
| CC(C)(O)c1cc(-c2ccc(-c3cccc(S(C)(=O)=O)c3)s2)n(-c2c(F)cccc2Cl)n1 [Example 950, 2-[1-(2-chloro-6-fluorophenyl)-5-{5-[3-(methylsulfonyl)phenyl]-2-thienyl}-1H-pyrazol-3-yl]propan-2-ol] | 1 to 10 | < 1 |
| CC(C)(O)c1cc(-c2ccc(-c3cccc(S(C)(=O)=O)c3)s2)n(-c2c(F)cccc2C(F)(F)F)n1 [Example 951] | 1 to 10 | < 1 |
| Cc1cccc(Cl)c1-n1nc(C(C)(C)O)cc1-c1ccc(-c2cccc(S(C)(=O)=O)c2)s1 [Example 952, 2-[1-(2-chloro-6-methylphenyl)-5-{5-[3-(methylsulfonyl)phenyl]-2-thienyl}-1H-pyrazol-3-yl]propan-2-ol] | 1 to 10 | < 1 |
| CC(C)(O)c1nn(-c2c(Cl)cccc2Cl)c(-c2ccc(-c3cccc(S(C)(=O)=O)c3)s2)c1Cl [Example 953, 2-[4-chloro-1-(2,6-dichlorophenyl)-5-{5-[3-(methylsulfonyl)phenyl]-2-thienyl}-1H-pyrazol-3-yl]propan-2-ol] | 1 to 10 | < 1 |
| CC(C)(O)c1nn(-c2c(F)cccc2Cl)c(-c2ccc(-c3cccc(S(C)(=O)=O)c3)s2)c1Cl [Example 954, 2-[4-chloro-1-(2-chloro-6-fluorophenyl)-5-{5-[3-(methylsulfonyl)phenyl]-2-thienyl}-1H-pyrazol-3-yl]propan-2-ol] | 1 to 10 | < 1 |
| CC(C)(O)c1cc(-c2ccc(-c3cccc(S(C)(=O)=O)c3)s2)n(-c2c(Cl)cncc2Cl)n1 [Example 955, 2-[1-(3,5-dichloropyridin-4-yl)-5-{5-[3-(methylsulfonyl)phenyl]-2-thienyl}-1H-pyrazol-3-yl]propan-2-ol] | 1 to 10 | < 1 |
| CC(C)(O)c1cc(-c2c(F)cccc2Cl)n(-c2ccc(-c3cccc(S(C)(=O)=O)c3)cc2)n1 [Example 962, 2-{5-(2-chloro-6-fluorophenyl)-1-[3′-(methylsulfonyl)biphenyl-4-yl]-1H-pyrazol-3-yl}propan-2-ol] | 1 to 10 | < 1 |
| CC(C)(O)c1cc(-c2c(Cl)cccc2Cl)n(-c2ccc(-c3cccc(S(C)(=O)=O)c3)cc2)n1 [Example 963, 2-{5-(2,6-dichlorophenyl)-1-[3′-(methylsulfonyl)biphenyl-4-yl]-1H-pyrazol-3-yl}propan-2-ol] | 1 to 10 | < 1 |
| CC(C)(O)c1nn(-c2ccc(-c3cccc(S(C)(=O)=O)c3)cc2F)c(-c2c(F)cccc2Cl)c1Cl [Example 964, 2-{4-chloro-5-(2-chloro-6-fluorophenyl)-1-[3-fluoro-3′-(methysulfonyl)biphenyl-4-yl]-1H-pyrazol-3-yl}propan-2-ol] | 1 to 10 | < 1 |
| CC(C)(O)c1cc(-c2c(Cl)cccc2Cl)n(-c2ccc(-c3cccc(S(C)(=O)=O)c3)cc2Cl)n1 [Example 965, 2-{1-[3-chloro-3′-(methylsulfonyl)biphenyl-4-yl]-5-(2,6-dichlorophenyl)-1H-pyrazol-3-yl}propan-2-ol] | 1 to 10 | < 1 |
| Cc1cc(-c2cccc(S(C)(=O)=O)c2)ccc1-n1nc(C(C)(C)O)cc1-c1c(Cl)cccc1Cl [Example 966, 2-{5-(2,6-dichlorophenyl)-1-[3-methyl-3′-(methylsulfonyl)biphenyl-4-yl]-1H-pyrazol-3-yl}propan-2-ol] | 1 to 10 | < 1 |
| Cc1cc(-c2cccc(S(C)(=O)=O)c2)ccc1-n1nc(C(C)(C)O)c(Cl)c1-c1c(Cl)cccc1Cl [Example 967, 2-{4-chloro-5-(2,6-dichlorophenyl)-1-[3-methyl-3′-(methylsulfonyl)biphenyl-4-yl]-1H-pyrazol-3-yl}propan-2-ol] | 1 to 10 | < 1 |
| Cc1cc(-c2cccc(S(C)(=O)=O)c2)ccc1-n1nc(C(C)(C)O)c(Cl)c1-c1c(F)cccc1Cl [Example 968, 2-{4-chloro-5-(2-chloro-6-fluorophenyl)-1-[3-methyl-3′-(methylsulfonyl)biphenyl-4-yl]-1H-pyrazol-3-yl}propan-2-ol] | > 10 | < 1 |
| Cc1cc(-n2nc(C(C)(C)O)cc2-c2c(F)cccc2Cl)ccc1-c1cccc(S(C)(=O)=O)c1 [Example 969, 2-{5-(2-chloro-6-fluorophenyl)-1-[2-methyl-3′-(methylsulfonyl)biphenyl-4-yl]-1H-pyrazol-3-yl}propan-2-ol] | 1 to 10 | 1 to 10 |
| Cc1cc(-n2nc(C(C)(C)O)cc2-c2c(Cl)cccc2Cl)ccc1-c1cccc(S(C)(=O)=O)c1 [Example 970, 2-{5-(2,6-dichlorophenyl)-1-[2-methyl-3′-(methylsulfonyl)biphenyl-4-yl]-1H-pyrazol-3-yl}propan-2-ol] | 1 to 10 | 1 to 10 |

Next, values leading:

| EC50 (FXR) [µM] | EC50 (LXR) [µM] | SMILES |
| --- | --- | --- |
| 1 to 10 | 1 to 10 | CC(C)(O)c1cc(COc2ccc(-c3ccc(C(=O)O)cc3Cl)cc2)n(-c2c(Cl)cccc2Cl)n1 [Example 906, 2-chloro-4′-({[1-(2,6-dichlorophenyl)-3-(1-hydroxy-1-methylethyl)-1H-pyrazol-5-yl]methyl}oxy)biphenyl-4-carboxylic acid] |
| < 1 | 1 to 10 | CC(C)c1cc(COc2ccc(-c3ccc(C(=O)O)cc3Cl)cc2)n(-c2c(Cl)cccc2Cl)n1 [Example 907, 2-chloro-4′-({[1-(2,6-dichlorophenyl)-3-(1-methylethyl)-1H-pyrazol-5-yl]methyl}oxy)biphenyl-4-carboxylic acid] |
| 1 to 10 | > 10 | O=C(O)c1ccc(-c2ccc(OCc3cc(C(F)(F)F)nn3-c3c(Cl)cccc3Cl)cc2)cc1 [Example 921, 4′-({[1-(2,6-dichlorophenyl)-3-(trifluoromethyl)-1H-pyrazol-5-yl]methyl}oxy)biphenyl-4-carboxylic acid] |
| 1 to 10 | < 1 | O=C(O)c1ccc(-c2ccc(OCc3cc(C(F)(F)F)nn3-c3c(Cl)cccc3Cl)cc2)c(Cl)c1 [Example 946, 2-chloro-4′-({[1-(2,6-dichlorophenyl)-3-(trifluoromethyl)-1H-pyrazol-5-yl]methyl}oxy)biphenyl-4-carboxylic acid] |
| < 1 | < 1 | CC(C)c1cc(COc2ccc(-c3ccc(C(=O)O)cc3Cl)cc2)n(-c2c(Cl)cccc2Cl)n1 [Example 947, 2-chloro-4′-({[1-(2,6-dichlorophenyl)-3-(1-methylethyl)-1H-pyrazol-5-yl]methyl}oxy)biphenyl-4-carboxylic acid] |
| 1 to 10 | < 1 | CC(C)(O)c1cc(-c2ccc(-c3cccc(S(C)(=O)=O)c3)cc2)n(-c2c(Cl)cccc2Cl)n1 [Example 956, 2-{1-(2,6-dichlorophenyl)-5-[3′-(methylsulfonyl)biphenyl-4-yl]-1H-pyrazol-3-yl}propan-2-ol] |
| < 1 | < 1 | CC(C)(O)c1nn(-c2c(Cl)cccc2Cl)c(-c2ccc(-c3cccc(S(C)(=O)=O)c3)cc2)c1Cl [Example 957, 2-{4-chloro-1-(2,6-dichlorophenyl)-5-[3′-(methylsulfonyl)biphenyl-4-yl]-1H-pyrazol-3-yl}propan-2-ol] |
| < 1 | < 1 | CC(C)(O)c1cc(-c2ccc(-c3cccc(S(C)(=O)=O)c3)cc2Cl)n(-c2c(Cl)cccc2Cl)n1 [Example 958, 2-{5-[3-chloro-3′-(methylsulfonyl)biphenyl-4-yl]-1-(2,6-dichlorophenyl)-1H-pyrazol-3-yl}propan-2-ol] |
| < 1 | < 1 | CC(C)(O)c1nn(-c2c(Cl)cccc2Cl)c(-c2ccc(-c3cccc(S(C)(=O)=O)c3)cc2Cl)c1Cl [Example 959, 2-{4-chloro-5-[3-chloro-3′-(methysulfonyl)biphenyl-4-yl]-1-(2,6-dichlorophenyl)-1H-pyrazol-3-yl}propan-2-ol] |
| < 1 | < 1 | Cc1cc(-c2cccc(S(C)(=O)=O)c2)ccc1-c1cc(C(C)(C)O)nn1-c1c(Cl)cccc1Cl [Example 960, 2-{1-(2,6-dichlorophenyl)-5-[3-methyl-3′-(methylsulfonyl)biphenyl-4-yl]-1H-pyrazol-3-yl}propan-2-ol] |
| < 1 | 1 to 10 | Cc1cc(-c2cc(C(C)(C)O)nn2-c2c(Cl)cccc2Cl)ccc1-c1cccc(S(C)(=O)=O)c1 [Example 961, 2-{1-(2,6-dichlorophenyl)-5-[2-methyl-3′-(methylsulfonyl)biphenyl-4-yl]-1H-pyrazol-3-yl}propan-2-ol] |
